Measurements from PMC8851638 (ACS Omega, 2022).
In brackets after ≈: the same amount, converted by molar mass. Several values for one entry are separate records, joined by “and”; a condition that tells them apart may be missing. Identical values can stand only once.

Tests used:
[1] = system: S. epidermidis (MDR00223); assay: MIC and MBC by broth microdilution; format: cell-based, Staphylococcus epidermidis
[2] = In vitro cytotoxicity on normal cell line; format: cell-based, mouse; conditions: mouse, BNL normal liver cells
[3] = system: BNL: mouse normal liver cells; assay: In vitro cytotoxicity on normal cell line; format: cell-based
A. baumannii (MDR00521) = assay: MIC and MBC by broth microdilution; format: cell-based; conditions: ratio in parentheses
C. albicans200 [4] = assay: Single-step resistance selection; format: cell-based, Candida albicans; conditions: 4 × MIC, 48 h
E. coli (MDR00501) [5] = assay: Agar well-diffusion antimicrobial sensitivity assay; format: cell-based; conditions: Escherichia coli, read-out: Inhibition Zone (IZ)
E. coli DNA gyrase = E. coli DNA gyrase (Escherichia coli, UniProt P0AES4+P0AES6); assay: DNA gyrase inhibition; format: biochemical
A. baumannii [6] = assay: Checkerboard combination assay with Ciprofloxacin; format: cell-based
[7] = system: C. albicans100 (MDR00100); assay: MIC and MFC by broth microdilution; format: cell-based, Candida albicans
S. aureus biofilm = assay: Staphylococcus biofilm mass reduction; format: cell-based; conditions: at their MIC
C. albicans100 [8] = assay: Single-step resistance selection; format: cell-based, Candida albicans; conditions: 4 × MIC, 48 h
B. subtilis = assay: Single-step resistance selection; format: cell-based; conditions: 4 × MIC, 48 h
Gram-negative bacteria = assay: MIC broth microdilution, Gram-negative panel; format: cell-based; conditions: Gram-negative bacteria used in this study
[9] = system: Vero: green monkey kidney; assay: In vitro cytotoxicity on normal cell line; format: cell-based
[10] = In vitro cytotoxicity on normal cell line; format: cell-based, green monkey; conditions: green monkey, Vero kidney cells
E. coli = assay: Single-step resistance selection; format: cell-based; conditions: 4 × MIC, 48 h
S. aureus = assay: Single-step resistance selection; format: cell-based, Staphylococcus aureus; conditions: 4 × MIC, 48 h
[11] = In vitro cytotoxicity on normal cell line; format: cell-based, rat; conditions: rat, H9C2 heart/myocardium cells
[12] = system: H9C2: rat heart/myocardium; assay: In vitro cytotoxicity on normal cell line; format: cell-based
[13] = system: S. epidermidis (MDR00223); assay: Agar well-diffusion antimicrobial sensitivity assay; format: cell-based, Staphylococcus epidermidis; conditions: Staphylococcus epidermidis, read-out: Inhibition Zone (IZ)
S. epidermidis = assay: Single-step resistance selection; format: cell-based, Staphylococcus epidermidis; conditions: 4 × MIC, 48 h
RBCs = assay: Hemolytic assay; format: cell-based; conditions: human RBCs; compounds 1.0 mg/mL; Triton X-100 0.1% v/v; 37 °C, 35 min
[14] = system: C. albicans200 (MDR00200); assay: Agar well-diffusion antimicrobial sensitivity assay; format: cell-based, Candida albicans; conditions: Candida albicans, read-out: Inhibition Zone (IZ)
B. subtilis (MDR00423) = assay: MIC and MBC by broth microdilution; format: cell-based; conditions: B. subtilis; ratio in parentheses
A. baumannii [15] = assay: Single-step resistance selection; format: cell-based; conditions: 4 × MIC, 48 h
[16] = biological target: T1, dihydrofolate reductase (DHFR) (Homo sapiens, UniProt P00374); assay: DHFR inhibition; format: biochemical
T1 sequence (P00374 1-187): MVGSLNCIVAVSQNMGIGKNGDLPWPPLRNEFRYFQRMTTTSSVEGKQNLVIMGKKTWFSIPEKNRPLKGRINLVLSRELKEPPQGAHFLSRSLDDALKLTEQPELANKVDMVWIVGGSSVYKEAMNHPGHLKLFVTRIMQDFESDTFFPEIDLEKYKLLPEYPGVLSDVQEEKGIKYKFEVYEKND

K. pneumoniae (MDR00244) = assay: MIC and MBC by broth microdilution; format: cell-based; conditions: ratio in parentheses
E. coli (MDR00501) [17] = assay: MIC and MBC by broth microdilution; format: cell-based
S. aureus (MDR00231) [18] = assay: Agar well-diffusion antimicrobial sensitivity assay; format: cell-based, Staphylococcus aureus; conditions: Staphylococcus aureus, read-out: Inhibition Zone (IZ)
S. epidermidis biofilm = assay: Staphylococcus biofilm mass reduction; format: cell-based; conditions: at their MIC
[19] = system: C. albicans200 (MDR00200); assay: MIC and MFC by broth microdilution; format: cell-based, Candida albicans
C. albicans200 [20] = assay: Checkerboard combination assay with Ketoconazole; format: cell-based, Candida albicans
C. albicans100 [21] = assay: Checkerboard combination assay with Ketoconazole; format: cell-based, Candida albicans
[22] = system: C. albicans100 (MDR00100); assay: Agar well-diffusion antimicrobial sensitivity assay; format: cell-based, Candida albicans; conditions: Candida albicans, read-out: Inhibition Zone (IZ)
[23] = system: clinical pathogenic isolates; assay: Single-step resistance selection, whole panel; format: cell-based; conditions: 4 × MIC
S. aureus (MDR00231) [24] = assay: MIC and MBC by broth microdilution; format: cell-based, Staphylococcus aureus
K. pneumoniae = assay: Single-step resistance selection; format: cell-based; conditions: 4 × MIC, 48 h
[25] = Candida albicans, read-out: MIC (mean ± SEM)

Chain of E. coli DNA gyrase (P0AES4 whole entry, one chain of several): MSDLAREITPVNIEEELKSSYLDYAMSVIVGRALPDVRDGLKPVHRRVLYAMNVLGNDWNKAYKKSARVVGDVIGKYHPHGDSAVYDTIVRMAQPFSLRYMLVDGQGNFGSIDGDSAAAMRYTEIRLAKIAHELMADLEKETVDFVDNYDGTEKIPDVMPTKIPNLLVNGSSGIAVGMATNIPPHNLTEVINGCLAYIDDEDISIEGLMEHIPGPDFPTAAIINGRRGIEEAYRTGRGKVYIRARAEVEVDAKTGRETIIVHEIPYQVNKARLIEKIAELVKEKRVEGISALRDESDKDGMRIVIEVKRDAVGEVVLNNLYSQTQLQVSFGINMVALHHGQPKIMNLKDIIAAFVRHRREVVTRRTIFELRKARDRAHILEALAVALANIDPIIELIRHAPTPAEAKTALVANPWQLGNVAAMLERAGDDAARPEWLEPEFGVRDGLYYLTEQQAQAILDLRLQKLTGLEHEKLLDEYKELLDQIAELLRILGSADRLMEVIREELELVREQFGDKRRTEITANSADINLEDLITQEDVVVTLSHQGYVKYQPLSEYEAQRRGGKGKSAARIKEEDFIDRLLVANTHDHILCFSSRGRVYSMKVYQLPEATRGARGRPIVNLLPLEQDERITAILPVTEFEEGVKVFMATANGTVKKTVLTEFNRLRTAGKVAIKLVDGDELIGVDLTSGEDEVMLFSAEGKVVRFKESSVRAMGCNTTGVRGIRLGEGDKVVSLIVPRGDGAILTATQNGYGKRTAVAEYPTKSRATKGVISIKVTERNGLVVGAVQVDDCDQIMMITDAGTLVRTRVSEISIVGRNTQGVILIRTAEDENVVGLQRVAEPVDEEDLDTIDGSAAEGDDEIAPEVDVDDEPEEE

**Q.** For `Cc1c(NN=C(C#N)C2=NC(=O)CS2)c(=O)n(-c2ccccc2)n1C` [Compound 13, N-(1,5-Dimethyl-3-oxo-2-phenyl-2,3-dihydro-1H-pyrazol-4-yl)-4-oxo-4,5-dihydrothiazole-2-carbohydrazonoyl cyanide], which MBC/MIC ([1]; S. epidermidis, ratio in parentheses) is on record?
**A.** 1

**Q.** And the MIC ([1]; Staphylococcus epidermidis, read-out: MIC (mean ± SEM))?
**A.** 0.99 ± 0.3 µg/mL (≈ 2.79 µM)

**Q.** What about the IC50 at 72 h [2] of the same compound?
**A.** 79.5 ± 1.67 µM

**Q.** And the “Selectivity index against DHFR” value ([3]; IC50 of BNL / IC50 of DHFR)?
**A.** 29.78

**Q.** What about the “Selectivity index against DNA gyrase” value ([3]; IC50 of BNL / IC50 of DNA gyrase) of the same compound?
**A.** 2.51

**Q.** What about the MBC/MIC (A. baumannii (MDR00521)) of the same compound?
**A.** 0.5

**Q.** And the “Single-step resistance frequency (mutation frequency)” value (from here on “Single-step resistance frequency”) (C. albicans200 [4])?
**A.** 3.20 × 10^–8

**Q.** What about the zone of inhibition at 100000 µg/mL (E. coli (MDR00501) [5]) of the same compound?
**A.** 28 ± 0.55 mm

**Q.** And the IC50 (E. coli DNA gyrase)?
**A.** 31.64 ± 0.17 µM

**Q.** What about the combination effect (A. baumannii [6]) of the same compound?
**A.** S (S: synergism)

**Q.** What about the “fractional inhibitory concentration index (FICI)” value (A. baumannii [6]) of the same compound?
**A.** 0.5

**Q.** And the MFC/MIC ([7]; C. albicans100, ratio in parentheses)?
**A.** 2

**Q.** And the MIC [7, 25]?
**A.** 0.99 ± 0.2 µg/mL (≈ 2.79 µM)

**Q.** And the “reduction of biofilm formation” value (S. aureus biofilm)?
**A.** 51.2%

**Q.** What about the “Single-step resistance frequency” value (C. albicans100 [8]) of the same compound?
**A.** 2.92 × 10^–9

**Q.** And the “Single-step resistance frequency” value (B. subtilis)?
**A.** 1.66 × 10^–9

**Q.** And the “MIC, range over panel” value (Gram-negative bacteria)?
**A.** 0.43 to 0.98 µg/mL

**Q.** And the “Selectivity index against DHFR” value ([9]; IC50 of Vero / IC50 of DHFR)?
**A.** 28.02

**Q.** What about the “Selectivity index against DNA gyrase” value ([9]; IC50 of Vero / IC50 of DNA gyrase) of the same compound?
**A.** 2.36

**Q.** What about the IC50 at 72 h [10] of the same compound?
**A.** 74.8 ± 2.12 µM

**Q.** What about the “Single-step resistance frequency” value (E. coli) of the same compound?
**A.** 2.90 × 10^–8

**Q.** What about the “Single-step resistance frequency” value (S. aureus) of the same compound?
**A.** 2.73 × 10^–8

**Q.** And the IC50 at 72 h [11]?
**A.** 61.6 ± 1.64 µM

**Q.** And the “Selectivity index against DHFR” value ([12]; IC50 of H9C2 / IC50 of DHFR)?
**A.** 23.06

**Q.** And the “Selectivity index against DNA gyrase” value ([12]; IC50 of H9C2 / IC50 of DNA gyrase)?
**A.** 1.94

**Q.** And the zone of inhibition at 100000 µg/mL [13]?
**A.** 25 ± 0.45 mm

**Q.** And the “Single-step resistance frequency” value (S. epidermidis)?
**A.** 4.15 × 10^–8

**Q.** And the “%lysis of RBCs” value (RBCs)?
**A.** 15.22% and 15.22 ± 0.43%

**Q.** What about the zone of inhibition at 100000 µg/mL [14] of the same compound?
**A.** 28 ± 0.36 mm

**Q.** What about the MBC/MIC (B. subtilis (MDR00423)) of the same compound?
**A.** 2

**Q.** And the “Single-step resistance frequency” value (A. baumannii [15])?
**A.** 2.71 × 10^–7

**Q.** And the IC50 [16]?
**A.** 2.67 ± 0.14 µM

**Q.** What about the MBC/MIC (K. pneumoniae (MDR00244)) of the same compound?
**A.** 2

**Q.** And the MBC/MIC (E. coli (MDR00501) [17]; E. coli, ratio in parentheses)?
**A.** 0.5

**Q.** What about the MIC (E. coli (MDR00501) [17]; Escherichia coli, read-out: MIC (mean ± SEM)) of the same compound?
**A.** 0.49 ± 0.2 µg/mL (≈ 1.38 µM)

**Q.** What about the zone of inhibition at 100000 µg/mL (S. aureus (MDR00231) [18]) of the same compound?
**A.** 27 ± 0.82 mm

**Q.** And the “reduction of biofilm formation” value (S. epidermidis biofilm)?
**A.** 47.8%

**Q.** And the MFC/MIC ([19]; C. albicans200, ratio in parentheses)?
**A.** 2

**Q.** And the MIC [19, 25]?
**A.** 0.98 ± 0.3 µg/mL (≈ 2.77 µM)

**Q.** And the combination effect (C. albicans200 [20])?
**A.** S (S: synergism)

**Q.** What about the “fractional inhibitory concentration index (FICI)” value (C. albicans200 [20]) of the same compound?
**A.** 0.5

**Q.** And the combination effect (C. albicans100 [21])?
**A.** S (S: synergism)

**Q.** What about the “fractional inhibitory concentration index (FICI)” value (C. albicans100 [21]) of the same compound?
**A.** 0.5

**Q.** And the zone of inhibition at 100000 µg/mL [22]?
**A.** 29 ± 0.25 mm

**Q.** What about the “mutation frequency, range over panel” value [23] of the same compound?
**A.** 2.71 × 10^–7 to 2.92 × 10^–9

**Q.** What about the MBC/MIC (S. aureus (MDR00231) [24]; S. aureus, ratio in parentheses) of the same compound?
**A.** 1

**Q.** And the MIC (S. aureus (MDR00231) [24]; Staphylococcus aureus, read-out: MIC (mean ± SEM))?
**A.** 0.98 ± 0.2 µg/mL (≈ 2.77 µM)

**Q.** What about the “Single-step resistance frequency” value (K. pneumoniae) of the same compound?
**A.** 3.22 × 10^–8
